# Reference: patent US6632828B2, “Substituted imidazole neuropeptide Y Y5 receptor antagonists” (Schering Corporation, priority 1999, dated 2003)
# pKi: −log10 of the molar value.
# Target: T1, Human NPY Y5 receptors (Homo sapiens, UniProt Q15761)
# T1 construct: expressed in transfected cells; host or cells: CHO cells (membrane protein)
# T1 sequence (Q15761 1-445): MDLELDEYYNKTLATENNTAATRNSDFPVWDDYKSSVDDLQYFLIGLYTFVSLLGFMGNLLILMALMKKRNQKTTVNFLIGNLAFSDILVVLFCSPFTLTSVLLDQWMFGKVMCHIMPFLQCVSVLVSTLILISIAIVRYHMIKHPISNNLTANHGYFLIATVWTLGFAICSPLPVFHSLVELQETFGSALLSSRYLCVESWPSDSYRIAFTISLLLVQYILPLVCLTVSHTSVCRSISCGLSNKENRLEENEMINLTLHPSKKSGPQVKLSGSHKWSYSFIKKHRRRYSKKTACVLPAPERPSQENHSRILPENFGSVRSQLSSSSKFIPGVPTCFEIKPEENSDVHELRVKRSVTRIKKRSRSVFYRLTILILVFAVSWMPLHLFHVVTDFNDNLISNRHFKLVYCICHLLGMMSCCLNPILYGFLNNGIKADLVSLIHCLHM
# Assay: NPY Receptor Binding Assay
# Settings: Human NPY Y5 receptors expressed in CHO cells; 0.1 nM 125I-peptide YY; read-out: r/h Y5 Ki
# Protocol: NPY Receptor Binding Assay
# Human NPY Y5 receptors were expressed in CHO cells. Binding assays were performed in 50 mM HEPES, pH 7.2, 2.5 mM CaCl2, 1 mM MgCl2 and 0.1% BSA containing 5-10 μg of membrane protein and 0.1 nM ^125I-peptide YY in a total volume of 200 μl. Non-specific binding was determined in the presence of 1 uM NPY. The reaction mixtures were incubated for 90 minutes at room temperature, then filtered through Millipore MAFC glass fiber filter plates which had been pre-soaked in 0.5% polyethyleneimine. The filters were washed with phosphate-buffered saline, and radioactivity was measured in a Packard TopCount scintillation counter.
row,Structure (SMILES),pKi
1,CN(c1cccc(-c2nc(-c3cccc(C(F)(F)F)c3)c[nH]2)c1)S(C)(=O)=O [Example 6A],8.68
2,O=C(Nc1cccc(-c2nc(-c3cccc(C(F)(F)F)c3)c[nH]2)c1)c1ccccc1 [Example 10A],7.20
3,FC(F)(F)c1cccc(-c2c[nH]c(N3CCN(c4ccccn4)CC3)n2)c1 [Example 26],8.85
4,FC(F)(F)c1cccc(-c2c[nH]c(C3=CCN(c4ccccn4)CC3)n2)c1 [Example 19],8.77
5,CS(=O)(=O)Nc1cccc(-c2nc(-c3cccc(C(F)(F)F)c3)c[nH]2)c1 [Example 5A],8.85
6,O=C(Nc1ccccc1)c1cccc(-c2nc(-c3cccc(C(F)(F)F)c3)c[nH]2)c1 [Example 2A],6.50
7,COC(=O)c1cccc(-c2nc(-c3cccc(C(F)(F)F)c3)c[nH]2)c1 [Example 1B],7.28
8,CS(=O)(=O)N1CCC(c2nc(-c3cc(Cl)cc(Cl)c3)c[nH]2)CC1 [Example 21C],8.70
9,FC(F)(F)c1cccc(-c2c[nH]c(C34CC5CC(CC(C5)C3)C4)n2)c1 [Example 1A],8.52
10,FC(F)(F)c1cccc(-c2c[nH]c(-c3cccc(CN4CCCCC4)c3)n2)c1 [Example 3],7.77
